Results taken from patent US8440660B2 (Santen Pharmaceutical Co., Ltd., priority 2006, dated 2013).

Molecular target: T1, Glucocorticoid Receptor (GR) (Homo sapiens, UniProt P04150)
T1 construct: purchased Invitrogen P2816
T1 sequence (P04150 1-777): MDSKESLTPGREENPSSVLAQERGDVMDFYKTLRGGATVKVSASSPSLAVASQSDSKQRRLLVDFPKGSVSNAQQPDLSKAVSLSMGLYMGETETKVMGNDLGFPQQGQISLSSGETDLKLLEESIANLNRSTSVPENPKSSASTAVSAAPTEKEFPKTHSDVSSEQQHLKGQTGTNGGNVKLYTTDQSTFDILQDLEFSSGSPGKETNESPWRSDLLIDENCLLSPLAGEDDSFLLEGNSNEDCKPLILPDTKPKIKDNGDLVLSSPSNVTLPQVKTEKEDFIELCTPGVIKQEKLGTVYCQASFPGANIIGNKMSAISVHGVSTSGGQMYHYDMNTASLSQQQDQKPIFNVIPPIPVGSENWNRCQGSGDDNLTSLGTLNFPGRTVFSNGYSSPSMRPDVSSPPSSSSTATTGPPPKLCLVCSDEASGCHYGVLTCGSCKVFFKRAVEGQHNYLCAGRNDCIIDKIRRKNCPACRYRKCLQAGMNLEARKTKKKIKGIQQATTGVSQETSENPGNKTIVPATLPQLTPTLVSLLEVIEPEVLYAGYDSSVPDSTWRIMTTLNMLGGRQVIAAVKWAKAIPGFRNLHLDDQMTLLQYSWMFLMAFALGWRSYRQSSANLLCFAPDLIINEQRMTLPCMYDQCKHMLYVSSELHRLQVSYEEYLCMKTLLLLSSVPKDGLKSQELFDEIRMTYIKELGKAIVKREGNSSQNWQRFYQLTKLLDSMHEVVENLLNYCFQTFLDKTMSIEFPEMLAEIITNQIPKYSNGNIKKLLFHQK
Experiment: GR receptor competitor assay by fluorescence polarization (Invitrogen GR competitor assay kit, cat No. P2816)
Conditions: 20 μM test compound solution, 10 μL per well plus 5 μL 4×GS1 and 5 μL 4×GR solution; recombinant human GR; 2 to 4 hours at room temperature; a ratio of 100% or more is indicated by 100%; read-out: GR Binding ratio (%)
Description: A detailed explanation of this matter will be described in the section of “Pharmacological Test” in Examples described below. In order to find the usefulness of the present compound as a pharmaceutical, a glucocorticoid receptor competitor assay was carried out by a fluorescence polarization method by using a glucocorticoid receptor competitor assay kit (manufactured by Invitrogen, cat No P2816) to study the glucocorticoid receptor binding activity of the present compound.
1. Evaluation Test for Binding Activity to Glucocorticoid Receptor (Hereinafter Referred to as “GR”)
In order to evaluate a binding activity to GR, a receptor competitor assay was carried out by a fluorescence polarization method. In the assay, a GR competitor assay kit (manufactured by Invitrogen, cat No. P2816) was used, and a procedure was carried out according to the protocol attached to the kit. Hereinafter, the specific method will be described.
(Preparation of Reagents)
GR screening buffer: A buffer containing 10 mM potassium phosphate (pH 7.4), 20 mM sodium molybdate (Na2MoO4), 0.1 mM ethylene diamine tetraacetic acid (EDTA), 5 mM dithiothreitol (DTT), 0.1 mM stabilizing peptide and 2% dimethylsulfoxide was prepared.
4×GS1 solution: Fluormone™ GS1, which is a fluorescent glucocorticoid ligand, was diluted with GR screening buffer, whereby a 4 nM solution was prepared.
4×GR solution: Recombinant human GR was diluted with GR screening buffer, whereby a 16 nM solution was prepared.
(Preparation of Test Compound Solution)
After a test compound was dissolved in dimethylsulfoxide, the resulting solution was diluted with GR screening buffer, whereby a 20 μM test compound solution was prepared.
(Test Method and Measurement Method)
1) The test compound solution was added in an amount of 10 μL into each well of a 384-well plate, and then, 4×GS1 solution and 4×GR solution were added in an amount of 5 μL into each well, respectively.
2) The plate was incubated in a dark place at room temperature for 2 to 4 hours.
3) By using a multimode plate reader, Analyst™ HT (manufactured by LJL Biosystems), fluorescence polarization of each well was measured. As the blank, a well containing GR screening buffer in place of the test compound and 4×GS1 solution was used.
4) The same procedure as that in the above 1) to 3) was carried out except that GR screening buffer was used in place of the test compound solution, and the obtained result was taken as the negative control.
5) The same procedure as that in the above 1) to 3) was carried out except that 2 mM dexamethasone was used in place of the test compound solution, and the obtained result was taken as the positive control.
(Calculation Equation of GR Binding Ratio)
A GR binding ratio (%) was calculated from the following equation. GR binding ratio (%)=100×[1−(fluorescence polarization of test compound solution−fluorescence polarization of positive control solution)/(fluorescence polarization of negative control solution−fluorescence polarization of positive control solution)] (Test Results and Discussion)

inhibition at 10 µM [%]	Structure (SMILES)
100	COc1cc(OC(=O)c2cccc(C(C)=O)c2)ccc1-c1ccc2c(c1COc1cc(F)ccc1C)C(C)=CC(C)(C)N2 [Compound 1-58, 6-[4-(3-Acetylbenzoyloxy)-2-methoxyphenyl]-5-(5-fluoro-2-methylphenoxymethyl)-2,2,4-trimethyl-1,2-dihydroquinoline]
100	COc1cc(OC(=O)c2occc2C)ccc1-c1ccc2c(c1COc1cc(F)ccc1C)C(C)=CC(C)(C)N2 [Compound 1-71, 5-(5-Fluoro-2-methylphenoxymethyl)-6-[2-methoxy-4-(3-methylfuran-2-ylcarbonyloxy)phenyl]-2,2,4-trimethyl-1,2-dihydroquinoline]
100	COc1cc(OC(=O)c2ccccc2F)ccc1-c1ccc2c(c1COc1cc(F)ccc1C)C(C)=CC(C)(C)N2 [Compound 1-59, 6-[4-(2-Fluorobenzoyloxy)-2-methoxyphenyl]-5-(5-fluoro-2-methylphenoxymethyl)-2,2,4-trimethyl-1,2-dihydroquinoline]
100	COc1cc(OC(=O)c2ccc(C(C)=O)cc2)ccc1-c1ccc2c(c1COc1cc(F)ccc1C)C(C)=CC(C)(C)N2 [Compound 1-67, 6-[4-(4-Acetylbenzoyloxy)-2-methoxyphenyl]-5-(5-fluoro-2-methylphenoxymethyl)-2,2,4-trimethyl-1,2-dihydroquinoline]
99	CCCS(=O)(=O)Oc1ccc(-c2ccc3c(c2COc2cc([N+](=O)[O-])ccc2OC)C(C)=CC(C)(C)N3)c(OC)c1 [Compound 4-18, 5-(2-Methoxy-5-nitrophenoxymethyl)-6-(2-methoxy-4-propylsulfonyloxyphenyl)-2,2,4-trimethyl-1,2-dihydroquinoline]
100	COc1cc(OC(=O)c2cccnc2)ccc1-c1ccc2c(c1COc1cc(F)ccc1C)C(C)=CC(C)(C)N2 [Compound 1-13, 5-(5-Fluoro-2-methylphenoxymethyl)-6-[2-methoxy-4-(pyridin-3-ylcarbonyloxy)phenyl]-2,2,4-trimethyl-1,2-dihydroquinoline]
97	COc1ccc([N+](=O)[O-])cc1OCc1c(-c2ccc(OC(=O)c3ccsc3)cc2OC)ccc2c1C(C)=CC(C)(C)N2 [Compound 1-115, 5-(2-Methoxy-5-nitrophenoxymethyl)-6-[2-methoxy-4-(thiophen-3-ylcarbonyloxy)phenyl]-2,2,4-trimethyl-1,2-dihydroquinoline]
84	CCC(=O)Oc1ccc(OC)c(-c2ccc3c(c2COc2cc(F)ccc2C)C(C)=CC(C)(C)N3)c1 [Compound 1-27, 5-(5-Fluoro-2-methylphenoxylmethyl)-6-(2-methoxy-5-propionyloxyphenyl)-2,2,4-trimethyl-1,2-dihydroquinoline]
100	COC(=O)c1cccc(C(=O)Oc2ccc(-c3ccc4c(c3COc3cc(F)ccc3C)C(C)=CC(C)(C)N4)c(OC)c2)c1 [Compound 1-68, 5-(5-Fluoro-2-methylphenoxymethyl)-6-[2-methoxy-4-(3-methoxycarbonylbenzoyloxy)phenyl]-2,2,4-trimethyl-1,2-dihydroquinoline]
100	COc1cc(OC(=O)c2cccnc2C)ccc1-c1ccc2c(c1COc1cc([N+](=O)[O-])ccc1C)C(C)=CC(C)(C)N2 [Compound 1-122, 6-[2-Methoxy-4-(2-methylpyridin-3-ylcarbonyloxy)phenyl]-5-(2-methyl-5-nitrophenoxymethyl)-2,2,4-trimethyl-1,2-dihydroquinoline]
100	COc1ccc([N+](=O)[O-])cc1OCc1c(-c2ccc(OS(=O)(=O)C(C)C)cc2OC)ccc2c1C(C)=CC(C)(C)N2 [Compound 4-20, 6-(4-Isopropylsulfonyloxy-2-methoxyphenyl)-5-(2-methoxy-5-nitrophenoxymethyl)-2,2,4-trimethyl-1,2-dihydroquinoline]
100	CCCS(=O)(=O)Oc1ccc(-c2ccc3c(c2COc2cc([N+](=O)[O-])ccc2C)C(C)=CC(C)(C)N3)c(OC)c1 [Compound 4-25, 6-(2-Methoxy-4-propylsulfonyloxyphenyl)-5-(2-methyl-5-nitrophenoxymethyl)-2,2,4-trimethyl-1,2-dihydroquinoline]
93	COc1cc(OC(=O)c2ccco2)ccc1-c1ccc2c(c1COc1cc([N+](=O)[O-])ccc1C)C(C)=CC(C)(C)N2 [Compound 1-95, 6-[4-(Furan-2-ylcarbonyloxy)-2-methoxyphenyl]-5-(2-methyl-5-nitrophenoxymethyl)-2,2,4-trimethyl-1,2-dihydroquinoline]
98	COc1cc(OC(=O)C(C)(C)C)ccc1-c1ccc2c(c1COc1cc(F)ccc1C)C(C)=CC(C)(C)N2 [Compound 1-72, 6-(4-t-Butylcarbonyloxy-2-methoxyphenyl)-5-(5-fluoro-2-methylphenoxymethyl)-2,2,4-trimethyl-1,2-dihydroquinoline]
100	COc1cc(OS(=O)(=O)C2CCCC2)ccc1-c1ccc2c(c1COc1cc(F)ccc1C)C(C)=CC(C)(C)N2 [Compound 4-29, 6-(4-Cyclopentylsulfonyloxy-2-methoxyphenyl)-5-(5-fluoro-2-methylphenoxymethyl)-2,2,4-trimethyl-1,2-dihydroquinoline]
100	COc1cccc(C(=O)Oc2ccc(-c3ccc4c(c3COc3cc(F)ccc3C)C(C)=CC(C)(C)N4)c(OC)c2)c1 [Compound 1-7, 5-(5-Fluoro-2-methylphenoxymethyl)-6-[2-methoxy-4-(3-methoxybenzoyloxy)phenyl]-2,2,4-trimethyl-1,2-dihydroquinoline]
98	COc1ccc([N+](=O)[O-])cc1OCc1c(-c2ccc(OS(=O)(=O)C3CC3)cc2OC)ccc2c1C(C)=CC(C)(C)N2 [Compound 4-19, 6-(4-Cyclopropylsulfonyloxy-2-methoxyphenyl)-5-(2-methoxy-5-nitrophenoxymethyl)-2,2,4-trimethyl-1,2-dihydroquinoline]

Structure (SMILES)	inhibition at 10 µM [%]
COc1cc(OC(=O)Cc2cccnc2)ccc1-c1ccc2c(c1COc1cc(F)ccc1C)C(C)=CC(C)(C)N2 [Compound 1-64, 5-(5-Fluoro-2-methylphenoxymethyl)-6-[2-methoxy-4-(pyridin-3-ylacetoxy)phenyl]-2,2,4-trimethyl-1,2-dihydroquinoline]	100
COc1cc(OC(=O)c2cn(C(=O)OC(C)(C)C)cn2)ccc1-c1ccc2c(c1COc1cc(F)ccc1C)C(C)=CC(C)(C)N2 [Compound 1-53, 6-[4-(1-t-Butoxycarbonylimidazol-4-ylcarbonyloxy)-2-methoxyphenyl]-5-(5-fluoro-2-methylphenoxymethyl)-2,2,4-trimethyl-1,2-dihydroquinoline]	100
COC(=O)c1ccc(NC(=O)Oc2ccc(-c3ccc4c(c3COc3cc(F)ccc3C)C(C)=CC(C)(C)N4)c(OC)c2)cc1 [Compound 6-14, 5-(5-Fluoro-2-methylphenoxymethyl)-6-[2-methoxy-4-(4-methoxycarbonylphenylaminocarbonyloxy)phenyl]-2,2,4-trimethyl-1,2-dihydroquinoline]	88
